# Assay results reported in US10316021B2, “Heteroarylphenoxy benzamide kappa opioid ligands” (Pfizer Inc., priority 2016, dated 2019).
# Key:
# kappa opioid receptor [1] = target: T1, kappa opioid receptor (Mus musculus, UniProt P33534); assay: In vivo receptor occupancy (displacement of [3H]GR103545 in brain); settings: subcutaneous dosing; for IC50: displacement of [3H]GR103545, unbound brain concentration, read-out: Mouse KOR IVRO unbound brain IC50
# T1 construct: from tissue; host or cells: brain of adult male C57BL/6J mice (in vivo)
# T1 sequence (P33534 whole entry): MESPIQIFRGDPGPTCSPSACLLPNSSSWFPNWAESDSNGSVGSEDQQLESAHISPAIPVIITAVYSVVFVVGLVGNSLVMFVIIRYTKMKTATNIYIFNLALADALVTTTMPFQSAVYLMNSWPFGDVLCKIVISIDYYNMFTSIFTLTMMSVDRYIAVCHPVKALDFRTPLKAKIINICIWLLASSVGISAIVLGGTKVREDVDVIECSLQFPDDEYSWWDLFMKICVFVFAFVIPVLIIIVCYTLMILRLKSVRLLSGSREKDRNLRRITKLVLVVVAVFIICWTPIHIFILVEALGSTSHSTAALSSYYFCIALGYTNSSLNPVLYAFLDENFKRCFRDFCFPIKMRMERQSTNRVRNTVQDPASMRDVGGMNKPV
# Description: (§1) Adult male C576BL/J6 mice from Jackson Labs (Bar Harbor, Me.) were group housed on individually-vented cage racks, in environmentally-controlled animal quarters (light/dark-6:00 am/6:[…]) for a minimum of 7 days prior to use. For progressive ratio studies, mice were food-restricted to 80-85% of their body weight before testing began. All animal procedures were approved by the Pfizer Inc. IACUC and conducted in accordance with the NIH Guide for the Care and Use of Laboratory Animals.
# In Vivo Receptor Occupancy
# In vivo receptor occupancy was assessed in adult male C57BL6/J mice. Mice were administered increasing doses (0.001-32 mg/kg s.c.) 30 min prior to administration of the kappa opioid receptor ligand, [^3H]GR103545 (100 μCi/kg, intraorbital). Animals were euthanized 10 min later using cervical dislocation and the brains dissected. One hemisphere was stored at −40° C. for subsequent measurement of compound concentration, the other was homogenized in chilled Tris-HCl buffer (50 mM, pH 7.4; 1:10 w/v) for twenty seconds. Samples of brain homogenate were filtered through 0.3 to 0.5% PEI-soaked GF/B filters, and the filters washed twice with chilled buffer before radioactivity was counted overnight using a scintillation counter. Binding of the ligand in cerebellum was used to determine non-specific binding.
# kappa opioid receptor [2] = target: T1, kappa opioid receptor; assay: Progressive ratio responding (reversal of spiradoline-induced deficit in motivation); type: in vivo; settings: co-administered with spiradoline, receptor occupancy measured in a separate group of animals
# Description: as §1
# Progressive Ratio Responding:
# Motivation and food-reinforced operant behavior were assessed in the progressive ratio assay. Adult male C576BL/J6 mice were food-restricted to 80-85% of their body weight over a period of one week and kept in their home cages. Mice were trained to nose-poke for a food reward. […] Mice were assessed in a 60 minute session, where the number of rewards obtained was used as a surrogate of the level of motivation. Once mice had reached a stable level of responding, mice were dosed with the kappa opioid receptor agonist, spiradoline (3.2 mg/kg s.c.), to induce a deficit in motivation. Mice were co-administered increasing doses of the kappa opioid receptor antagonists (0.0032-3.2 mg/kg s.c.) to assess their ability to antagonize the spiradoline-induced deficit.
SMILES,"displacement of KOR agonist radioligand binding in the brain, in words (kappa opioid receptor [1])",IC50 (kappa opioid receptor [1]),% KOR IVRO to achieve 50% PR reversal (kappa opioid receptor [2])
"COc1nn(C)cc1[C@@H]1CCCN1Cc1ccc(Oc2ccc(C(N)=O)cc2)cc1 (single isomer, unassigned) [Example 12]",displaced KOR agonist radioligand ([^3H]GR103545) binding in the brain in an exposure-dependent manner,2.5 nM,30%
"COc1nn(C)cc1C1CCCN1Cc1ccc(Oc2ccc(C(N)=O)cc2F)cc1 (single isomer, unassigned; (-)) [Example 8, (−)-3-Fluoro-4-(4-{[2-(3-methoxy-1-methyl-1H-pyrazol-4-yl)pyrrolidin-1-yl]methyl}phenoxy)benzamide]",displaced KOR agonist radioligand ([^3H]GR103545) binding in the brain in an exposure-dependent manner,0.69 nM,25%
"Cc1cc(C)cc([C@@H]2CCCN2Cc2ccc(Oc3ccc(C(N)=O)cc3F)cc2)c1 [Comparator E, reference compound]",displaced KOR agonist radioligand ([^3H]GR103545) binding in the brain in an exposure-dependent manner,0.015 nM,70%
"Cc1nn(C)cc1[C@@H]1CCCN1Cc1ccc(Oc2ccc(C(N)=O)cc2)cc1 [Example 11, 4-(4-{[(2S)-2-(1,3-Dimethyl-1H-pyrazol-4-yl)pyrrolidin-1-yl]methyl}phenoxy)benzamide]",displaced KOR agonist radioligand ([^3H]GR103545) binding in the brain in an exposure-dependent manner,2.5 nM,30%
